Results on seven molecules are retold here after patent US10206398B2, “Five-membered C-N-attached aryl sulphide and aryl sulphoxide derivatives as pesticides” (BAYER CROPSCIENCE AKTIENGESELLSCHAFT, priority 2014, dated 2019).

One series has as its system Boophilus microplus. Briefly: Boophilus microplus - injection test. As to conditions: 20 μg/animal, injection into engorged adult female cattle ticks, assessed after 7 days. The class given is in vivo. The procedure:
1. Boophilus microplus—Injection Test
Solvent: dimethyl sulphoxide
To produce a suitable preparation of active compound, 10 mg of active compound are mixed with 0.5 ml of solvent and the concentrate is diluted with solvent to the desired concentration.
1 μl of the active compound solution is injected into the abdomen of 5 engorged adult female cattle ticks (Boophilus microplus). The animals are transferred into dishes and kept in a climate-controlled room.
Efficacy is assessed after 7 days by laying of fertile eggs. Eggs which are not visibly fertile are stored in a climate-controlled cabinet until the larvae hatch after about 42 days. An efficacy of 100% means that none of the ticks has laid any fertile eggs; 0% means that all the eggs are fertile.

A further series deals with Meloidogyne incognita. Briefly: Meloidogyne incognita - test. The class given is in vivo. As to conditions: 20 ppm, lettuce, after 14 days.
The subject of series [1] is Tetranychus urticae. As to the kind of experiment: Tetranychus urticae - spray test, OP-resistant (bean leaf discs, 6 days). The class given is in vivo. As to conditions: 500 g/ha, after 6 days. The essentials:
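Bean leaf discs carrying all stages of OP-resistant Tetranychus urticae were sprayed with compound formulated in acetone/DMF and diluted in water with 1000 ppm emulsifier. Mortality was scored after 6 days as % efficacy, where 100% means all mites were killed.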

Series [2] is described as follows: log P determination by HPLC on reversed-phase columns (C 18), analogous to OECD Guideline 117. The class given is physicochemical. As to conditions: for logP[a]: method [a]; for logP[b]: method [b]. The essentials: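 Reversed-phase C18 HPLC per OECD 117, two conditions: [a] pH 2.7, 0.1% formic acid water/acetonitrile, log P(HCOOH); [b] pH 7.8, 0.001 M ammonium hydrogencarbonate/acetonitrile, log P(neutral). Both use a 10–95% acetonitrile gradient; values are interpolated from retention times against C3–C16 unbranched alkan-2-ones.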

In a further series the test system is Phaedon cochleariae. Briefly: Phaedon cochleariae - spray test. The format is in vivo. As to conditions: 500 g/ha, Chinese cabbage leaf discs, after 7 days. The procedure: 4. Phaedon cochleariae—Spray Test
Solvent: 78.0 parts by weight of acetone
• 1.5 parts by weight of dimethylformamide Emulsifier: alkylaryl polyglycol ether
To produce a suitable preparation of active compound, 1 part by weight of active compound is dissolved using the stated parts by weight of solvent and made up with water containing an emulsifier concentration of 1000 ppm until the desired concentration is attained. To produce further test concentrations, the preparation is diluted with emulsifier-containing water.
After 7 days, the efficacy in % is determined. 100% means that all the beetle larvae have been killed; 0% means that no beetle larvae have been killed.

Series [3] relates to Tetranychus urticae. Briefly: Tetranychus urticae - spray test, OP-resistant (bean plants, 7 days). The class given is in vivo. As to conditions: 20 ppm, after 7 days. The procedure: 6. Tetranychus urticae—Spray Test, OP-Resistant
Solvent: 7 parts by weight of dimethylformamide
Emulsifier: alkylaryl polyglycol ether
To produce a suitable preparation of active compound, 1 part by weight of active compound is dissolved using the stated parts by weight of solvent and made up with water containing an emulsifier concentration of 1000 ppm until the desired concentration is attained. To produce further test concentrations, the preparation is diluted with emulsifier-containing water. If the addition of ammonium salts or/and penetrants is required, these are each added in a concentration of 1000 ppm to the formulation solution.
Bean plants (Phaseolus vulgaris) heavily infested by all stages of the greenhouse red spider mite (Tetranychus urticae) are treated by spraying with the active compound preparation of the desired concentration.
After 7 days, the efficacy in % is determined. 100% means that all the spider mites have been killed; 0% means that no spider mites have been killed.

The subject of a further series is Myzus persicae. Briefly: Myzus persicae - spray test. To be noted: 500 g/ha, Chinese cabbage leaf discs, after 6 days. The format is in vivo. The procedure: 3. Myzus persicae—Spray Test Solvent: 78 parts by weight of acetone • • 1.5 parts by weight of dimethylformamide Emulsifier: alkylaryl polyglycol ether To produce a suitable preparation of active compound, 1 part by weight of active compound is dissolved using the stated parts by weight of solvent and made up with water containing an emulsifier concentration of 1000 ppm until the desired concentration is attained. To produce further test concentrations, the preparation is diluted with emulsifier-containing water. Discs of Chinese cabbage leaves (Brassica pekinensis) infested by all stages of the green peach aphid (Myzus persicae) are sprayed with an active compound preparation of the desired concentration. After 6 days, the efficacy in % is determined. 100% means that all the aphids have been killed; 0% means that no aphids have been killed.

With `Cc1cc(Cl)c(N2C(=O)CN(C(=O)Nc3cccc(Cl)c3)C2=O)cc1[S+]([O-])CC(F)(F)F` (racemic) [compound 72], in the series with Boophilus microplus, the “efficacy (laying of fertile eggs)” value was 100%. The “nematicidal efficacy (formation of galls)” value (from here on “nematicidal efficacy”) in the series on Meloidogyne incognita was determined as 90%. Besides, the “efficacy (spider mites killed)” value with Tetranychus urticae [1] turned out to be 100%. Also, in series [2], the “logP[a]” value was determined as 3.55 and the “logP[b]” value was 3.50. For the same molecule, the “efficacy (beetle larvae killed)” value in the series with Phaedon cochleariae is listed as 100%.
Consider `Cc1cc(F)c(N2C(=O)C(C)N(C(=O)NCC(F)(F)F)C2=O)cc1SCC(F)(F)F` (racemic) [compound 79], for which the “efficacy (laying of fertile eggs)” value with Boophilus microplus is listed as 100%. Further, in the series with Tetranychus urticae [1], the “efficacy (spider mites killed)” value amounted to 100%. In addition, in series [2], the “logP[a]” value is on record as 3.55 and the “logP[b]” value turned out to be 3.56. Besides, the “efficacy (beetle larvae killed)” value with Phaedon cochleariae is listed as 100%.
As for `Cc1cc(F)c(N2C(=O)CN(C(=O)NCC(F)(F)F)C2=O)cc1[S+]([O-])CC(F)(F)F` (single isomer, unassigned) [Ex. No. 136], in series [2], the “logP[a]” value came out at 2.4 and the “logP[b]” value is 2.43. In the series on Tetranychus urticae [3], the “efficacy (spider mites killed)” value came out at 100%.
As for `Cc1cc(F)c(N2C(=O)CN(C(=O)Nc3cccc(CC(F)(F)F)c3)C2=O)cc1[S+]([O-])CC(F)(F)F` (stereo not shown) [compound 43], in the series on Boophilus microplus, the “efficacy (laying of fertile eggs)” value was found to be 100%. The “nematicidal efficacy” value with Meloidogyne incognita is 100%. Moreover, in the series on Tetranychus urticae [1], the “efficacy (spider mites killed)” value was 100%. For the same molecule, in series [2], the “logP[a]” value is recorded as 3.45 and the “logP[b]” value came to 3.41. Further, the “efficacy (beetle larvae killed)” value in the series with Phaedon cochleariae was determined as 83%.
As for `Cc1cc(F)c(N2C(=O)CN(C(=O)Nc3cccc(F)c3)C2=O)cc1[S+]([O-])CC(F)(F)F` (stereo not shown) [compound 46], the “efficacy (aphids killed)” value with Myzus persicae turned out to be 90%. In addition, in the series on Boophilus microplus, the “efficacy (laying of fertile eggs)” value is 100%. Besides, the “efficacy (spider mites killed)” value with Tetranychus urticae [1] was 100%. Further, in series [2], the “logP[a]” value was found to be 3.02 and the “logP[b]” value was determined as 2.97.
In the case of `Cc1cc(F)c(N2C(=O)CN(C(=O)Nc3cccc(Cl)c3)C2=O)cc1[S+]([O-])CC(F)(F)F` (stereo not shown) [compound 48], the “efficacy (laying of fertile eggs)” value in the series with Boophilus microplus is given as 100%. In addition, the “nematicidal efficacy” value in the series with Meloidogyne incognita was 90%. Further, in the series with Tetranychus urticae [1], the “efficacy (spider mites killed)” value came out at 100%. For the same molecule, in series [2], the “logP[a]” value is 3.31 and the “logP[b]” value came out at 3.25. Moreover, the “efficacy (beetle larvae killed)” value with Phaedon cochleariae is given as 83%.
Take `Cc1cc(F)c(N2C(=O)CN(C(=O)NC(C)(C)C)C2=O)cc1SCC(F)(F)F` [compound 54]: the “efficacy (laying of fertile eggs)” value in the series with Boophilus microplus is reported as 100%. Also, the “nematicidal efficacy” value with Meloidogyne incognita is 100%. Moreover, the “efficacy (spider mites killed)” value in the series on Tetranychus urticae [1] was 100%. Moreover, in series [2], the “logP[a]” value was 3.84 and the “logP[b]” value worked out at 3.71. In addition, the “efficacy (beetle larvae killed)” value with Phaedon cochleariae was 100%.
